From the supplement of paper PMC8617591

Legend:
[1] = system: Mycobacterium tuberculosis Erdman (autoluminescent); experiment: AUC25, normalised area under dose response up to IC25 (three-drug combination) (fraction (0-1)); higher = more potent at low dose
Description: (§1)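 DiaMOND equipotent three-drug combination dose responses (10 doses, 1.5- or 2-fold spacing, centred on IC90) against autoluminescent M. tuberculosis Erdman in 8 in vitro models. Read-out is OD600, or luminescence for the intracellular and dormancy models, normalised to untreated wells. Hill-fit Einf, AUC25 and GRinf are potency metrics; FIC50 and FIC90 are total Loewe fractional inhibitory concentrations as log2 (negative = synergy).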

[2] = system: Mycobacterium tuberculosis Erdman (autoluminescent); experiment: total FIC50 (Loewe) at 50% inhibition, three-drug combination (log2); higher = more antagonistic
Description: as §1

[3] = system: Mycobacterium tuberculosis Erdman (autoluminescent); experiment: total FIC90 (Loewe) at 90% inhibition, three-drug combination (log2); higher = more antagonistic
Description: as §1

[4] = system: Mycobacterium tuberculosis Erdman (autoluminescent); experiment: GRinf, maximum normalised growth rate inhibition (three-drug combination) (unitless (-1 to 1)); higher = less effect (negative = killing)
Description: as §1

[5] = system: Mycobacterium tuberculosis Erdman (autoluminescent); experiment: Einf, fitted maximum growth inhibition of three-drug combination (fraction); higher = stronger maximal inhibition
Description: as §1

COc1c(N2C[C@@H]3CCCN[C@@H]3C2)c(F)cc2c(=O)c(C(=O)O)cn(C3CC3)c12 [moxifloxacin] + O=[N+]([O-])c1cn2c(n1)OC[C@@H](OCc1ccc(OC(F)(F)F)cc1)C2 [pretomanid] + CO[C@H]1/C=C/O[C@@]2(C)Oc3c(C)c(O)c4c(O)c(c(/C=N/N5CCN(C)CC5)c(O)c4c3C2=O)NC(=O)/C(C)=C\C=C\[C@H](C)[C@H](O)[C@@H](C)[C@@H](O)[C@@H](C)[C@H](OC(C)=O)[C@@H]1C [rifampicin]
Conditions | AUC25, [1] | Einf, [5] | GRinf, [4] | total FIC50, [2] | total FIC90, [3]
in vitro model: acidic pH 5.7, time point: constant (~7 days, model-specific) | 0.0717 | 0.875 | -0.146 | 0.484 | –
in vitro model: acidic pH 5.7, time point: terminal (~4-5 doublings, model-specific) | 0.0448 | 0.974 | -0.163 | 0.652 | 0.221
in vitro model: intracellular J774, time point: constant = terminal | – | 0.979 | -0.304 | – | 0.0806

Conditions | AUC25, [1] | Einf, [5] | GRinf, [4] | total FIC50, [2] | total FIC90, [3]
in vitro model: butyrate, time point: constant (~7 days, model-specific) | 0.0923 | 0.912 | 0.0241 | 0.355 | 0.227
in vitro model: butyrate, time point: terminal (~4-5 doublings, model-specific) | 0.085 | 0.962 | 0.00652 | 0.25 | 0.434
in vitro model: cholesterol 0.05 mM, time point: constant (~7 days, model-specific) | 0.0931 | 0.606 | -0.000182 | 0.67 | –
in vitro model: cholesterol 0.05 mM, time point: terminal (~4-5 doublings, model-specific) | 0.0743 | 0.858 | -0.0705 | 1.14 | -0.636
in vitro model: cholesterol-high 0.2 mM, time point: constant (~7 days, model-specific) | 0.0701 | 0.849 | -0.468 | 0.869 | 1.29
in vitro model: cholesterol-high 0.2 mM, time point: terminal (~4-5 doublings, model-specific) | 0.0765 | 0.996 | -0.801 | 0.954 | 0.992
in vitro model: dormancy (butyrate + nitrate, low O2), time point: constant (~7 days, model-specific) | 0.0676 | 0.883 | 0.23 | 0.689 | 0.327
in vitro model: dormancy (butyrate + nitrate, low O2), time point: terminal (~4-5 doublings, model-specific) | 0.0531 | 0.965 | -0.0626 | 0.662 | 0.913
in vitro model: standard 7H9 glycerol, time point: constant = terminal | 0.0625 | 0.883 | 0.162 | 0.125 | –
in vitro model: valerate, time point: constant (~7 days, model-specific) | 0.0778 | 0.847 | 0.0569 | 0.325 | –
in vitro model: valerate, time point: terminal (~4-5 doublings, model-specific) | 0.0459 | 0.924 | 0.0455 | 0.877 | 0.41

COc1c(N2C[C@@H]3CCCN[C@@H]3C2)c(F)cc2c(=O)c(C(=O)O)cn(C3CC3)c12 [moxifloxacin] + O=[N+]([O-])c1cn2c(n1)OC[C@@H](OCc1ccc(OC(F)(F)F)cc1)C2 [pretomanid] + NC(=O)c1cnccn1 [pyrazinamide]
Conditions | AUC25, [1] | Einf, [5] | GRinf, [4] | total FIC50, [2] | total FIC90, [3]
in vitro model: acidic pH 5.7, time point: constant (~7 days, model-specific) | 0.0694 | 0.831 | -0.227 | -0.148 | –
in vitro model: acidic pH 5.7, time point: terminal (~4-5 doublings, model-specific) | 0.0654 | 0.956 | -0.278 | 0.329 | -0.227
in vitro model: intracellular J774, time point: constant = terminal | – | 0.967 | -0.384 | – | 0.419

Conditions | AUC25, [1] | Einf, [5] | GRinf, [4] | total FIC50, [2] | total FIC90, [3]
in vitro model: butyrate, time point: constant (~7 days, model-specific) | 0.111 | 0.909 | 0.0413 | 0.152 | 1.77
in vitro model: butyrate, time point: terminal (~4-5 doublings, model-specific) | 0.0867 | 0.967 | -0.0495 | 0.235 | 0.86
in vitro model: cholesterol 0.05 mM, time point: constant (~7 days, model-specific) | 0.128 | 0.753 | -0.295 | – | –
in vitro model: cholesterol 0.05 mM, time point: terminal (~4-5 doublings, model-specific) | 0.102 | 0.926 | -0.334 | 1.11 | –
in vitro model: cholesterol-high 0.2 mM, time point: constant (~7 days, model-specific) | 0.0858 | 0.914 | -0.29 | 0.415 | –
in vitro model: cholesterol-high 0.2 mM, time point: terminal (~4-5 doublings, model-specific) | 0.0802 | 1 | -0.594 | 0.654 | 0.481
in vitro model: dormancy (butyrate + nitrate, low O2), time point: constant (~7 days, model-specific) | 0.0852 | 0.871 | 0.199 | 0.104 | -0.0729
in vitro model: dormancy (butyrate + nitrate, low O2), time point: terminal (~4-5 doublings, model-specific) | 0.0687 | 0.982 | -0.232 | 0.195 | 0.876
in vitro model: standard 7H9 glycerol, time point: constant = terminal | 0.071 | 0.972 | -0.151 | – | –
in vitro model: valerate, time point: constant (~7 days, model-specific) | 0.0976 | 0.89 | 0.0242 | -0.452 | –
in vitro model: valerate, time point: terminal (~4-5 doublings, model-specific) | 0.0676 | 0.945 | 0.00495 | 0.11 | -0.163

O=[N+]([O-])c1cn2c(n1)OC[C@@H](OCc1ccc(OC(F)(F)F)cc1)C2 [pretomanid] + CO[C@H]1/C=C/O[C@@]2(C)Oc3c(C)c(O)c4c(O)c(c(/C=N/N5CCN(C6CCCC6)CC5)c(O)c4c3C2=O)NC(=O)/C(C)=C\C=C\[C@H](C)[C@H](O)[C@@H](C)[C@@H](O)[C@@H](C)[C@H](OC(C)=O)[C@@H]1C [rifapentine] + CO[C@H]1/C=C/O[C@@]2(C)Oc3c(C)c(O)c4c(O)c(c(/C=N/N5CCN(C)CC5)c(O)c4c3C2=O)NC(=O)/C(C)=C\C=C\[C@H](C)[C@H](O)[C@@H](C)[C@@H](O)[C@@H](C)[C@H](OC(C)=O)[C@@H]1C [rifampicin]
Conditions | AUC25, [1] | Einf, [5] | GRinf, [4] | total FIC50, [2] | total FIC90, [3]
in vitro model: acidic pH 5.7, time point: constant (~7 days, model-specific) | 0.0846 | 0.906 | -0.198 | 0.583 | –
in vitro model: acidic pH 5.7, time point: terminal (~4-5 doublings, model-specific) | 0.0433 | 0.982 | -0.177 | 0.863 | 0.271
in vitro model: intracellular J774, time point: constant = terminal | – | 0.998 | -0.321 | – | 0.0281

Conditions | AUC25, [1] | Einf, [5] | GRinf, [4] | total FIC50, [2] | total FIC90, [3]
in vitro model: butyrate, time point: constant (~7 days, model-specific) | 0.0997 | 0.913 | 0.0188 | 0.122 | -0.618
in vitro model: butyrate, time point: terminal (~4-5 doublings, model-specific) | 0.0845 | 0.963 | -0.00218 | -0.0327 | -0.0222
in vitro model: cholesterol 0.05 mM, time point: constant (~7 days, model-specific) | 0.12 | 0.706 | -0.115 | 0.545 | –
in vitro model: cholesterol 0.05 mM, time point: terminal (~4-5 doublings, model-specific) | 0.0882 | 0.891 | -0.0855 | 0.37 | 0.821
in vitro model: cholesterol-high 0.2 mM, time point: constant (~7 days, model-specific) | 0.0723 | 0.899 | -0.242 | 0.542 | 0.699
in vitro model: cholesterol-high 0.2 mM, time point: terminal (~4-5 doublings, model-specific) | 0.0602 | 0.992 | -0.654 | 0.62 | 0.433
in vitro model: dormancy (butyrate + nitrate, low O2), time point: constant (~7 days, model-specific) | 0.0773 | 0.885 | 0.156 | 0.534 | 0.288
in vitro model: dormancy (butyrate + nitrate, low O2), time point: terminal (~4-5 doublings, model-specific) | 0.0339 | 0.968 | -0.0787 | 0.206 | 0.101
in vitro model: standard 7H9 glycerol, time point: constant = terminal | 0.0607 | 0.906 | 0.057 | 0.0183 | –
in vitro model: valerate, time point: constant (~7 days, model-specific) | 0.0681 | 0.866 | 0.0606 | 0.168 | –
in vitro model: valerate, time point: terminal (~4-5 doublings, model-specific) | 0.0473 | 0.937 | 0.0285 | 0.389 | 0.0371
